In test [1] the test system is Intrinsic and Common pathways of the coagulation cascade. In words: Activated Partial Thromboplastin Time (aPTT) in pooled normal human plasma. In kind it is biochemical. The source says: This Example describes the inhibitory activity of selected antibodies, as determined by four functional plasma assays: 1) Activated Partial Thromboplastin Time (aPTT), 2) Prothrombin Time (PT), 3) Thrombin Generation Assay (TGA) triggered by ellagic acid and 4) TGA triggered by Tissue Factor. The aPTT test evaluates all clotting factors of the Intrinsic and Common pathways of the coagulation cascade by measuring time for a clot to form after the addition of calcium and ellagic acid, whereas the PT test evaluates all clotting factors of the Extrinsic and Common pathways of the coagulation cascade after the addition of calcium and Tissue Factor. […]
The aPTT was determined on Diagnostica Stago STart4 Hemostasis Analyzer in the following manner: A total of 50 ul of pooled normal human plasma was added to a cuvette at 37° C. […] The measured clot time for the test article concentration was normalized to baseline (no drug) plasma clot time and plotted against log molar concentration of the test article. The results were analyzed using nonlinear regression (4-parameter logistics) with Prism 5 software (GraphPad) to obtain doubling time concentration.

Test [2] relates to Extrinsic and Common pathways of the coagulation cascade. In words: Prothrombin Time (PT) in pooled normal human plasma. In kind it is biochemical. The text has this: (§1) This Example describes the inhibitory activity of selected antibodies, as determined by four functional plasma assays: 1) Activated Partial Thromboplastin Time (aPTT), 2) Prothrombin Time (PT), 3) Thrombin Generation Assay (TGA) triggered by ellagic acid and 4) TGA triggered by Tissue Factor. The aPTT test evaluates all clotting factors of the Intrinsic and Common pathways of the coagulation cascade by measuring time for a clot to form after the addition of calcium and ellagic acid, whereas the PT test evaluates all clotting factors of the Extrinsic and Common pathways of the coagulation cascade after the addition of calcium and Tissue Factor. The TGA triggered by ellagic acid measures the rate and amount of thrombin generated via the Intrinsic and Common pathways whereas TGA triggered by Tissue Factor measures the rate and amount of thrombin generated via the Extrinsic and Common pathways.
The PT was determined on Diagnostica Stago STart4 Hemostasis Analyzer in the following manner. A total of 50 ul of pooled normal human plasma was added to a cuvette at 37° C. […] The measured clot time for the test article concentration was normalized to baseline (no drug) plasma clot time and plotted against log molar concentration of the test article. The results were analyzed using nonlinear regression (4-parameter logistics) with Prism 5 software (GraphPad) to obtain doubling time concentration.

For test [3], the system named is thrombin generated via the Intrinsic and Common pathways. In words: Thrombin Generation Assay (TGA) triggered by ellagic acid. The conditions noted are these: for Concentration required for ↑ lag time by 2× / Concentration required for ↓ endogenous thrombin potential by ½ / Concentration required for ↓ thrombin peak by ½: Intrinsic Pathway Activation with Ellagic Acid. In kind it is biochemical, human.
Text: as §1
(§2) The thrombin generation profile was determined in a Thermo Scientific Hemker Thrombinoscope in the following manner: A total of 55 ul of pooled normal human plasma was added to a well of a microplate at 37° C. Then 5 ul of a 2× serially diluted test article (antibody or small molecule inhibitor) in PBS was added to the well of the microplate and allowed to incubate for 30 min. 15 ul of APPT-XL Ellagic Acid (Thermo Scientific) was diluted in MP reagent then added to the well and allowed to incubate for 45 min. Then 15 ul of Fluo Flu Cal substrate (Diagnostica Stago) was added immediately before a continuous 90 min reading of the microplate. The measured real-time thrombin concentration values were plotted against time to yield a thrombogram profile for each concentration of the test article used.

The subject of test [4] is thrombin generated via the Extrinsic and Common pathways. Kind of test: Thrombin Generation Assay (TGA) triggered by Tissue Factor. In kind it is biochemical, human.
Text: as §1
as §2, with “Tissue Factor PPP Reagent (Diagnostica Stago)” for “APPT-XL Ellagic Acid (Thermo Scientific)”, “was” for “was diluted in MP reagent then”

Where [5] appears, read: conc. of drug required to increase clotting time by 2-fold over baseline.
[6] abbreviates: dose response curves, pooled normal human plasma.
Setting [7] is: Extrinsic Pathway Activation with Tissue Factor.

For the molecule `COc1ccc(-n2nc(C(N)=O)c3c2C(=O)N(c2ccc(N4CCCCC4=O)cc2)CC3)cc1` [Apixaban, reference compound], the “C2xt of activated Partial Thromboplastin Time (aPTT) - Intrinsic Pathway” value in test [1] (setting [5]) worked out at 7 µM. Also, the “effect on plasma aPTT (in words)” value in test [1] (setting [6]) was “prolonged both aPTT and PT with uM concentrations”. Besides, the “C2xt of Prothrombin Time (PT) - Extrinsic Pathway” value in test [2] (setting [5]) is 3.5 µM. In addition, in test [2] (setting [6]), the “effect on plasma PT (in words)” value was “prolonged both aPTT and PT with uM concentrations”. The “Concentration required for ↑ lag time by 2×” value is above 500 nM in test [3]; “— (no effect on thrombin generation with a dose up to 500 nM)” in test [3] (dash cells, dose up to 500 nM); 250 nM in test [4] (setting [7]). Besides, the “Concentration required for ↓ endogenous thrombin potential by ½” value is above 500 nM in test [3]; “— (no effect on thrombin generation with a dose up to 500 nM)” in test [3] (dash cells, dose up to 500 nM); 250 nM in test [4] (setting [7]). Besides, the “Concentration required for ↓ thrombin peak by ½” value in test [3] was above 500 nM; in test [3] (dash cells, dose up to 500 nM), “— (no effect on thrombin generation with a dose up to 500 nM)”; in test [4] (setting [7]) it was 62.5 nM. Moreover, the “effect on thrombin generation (in words)” value is on record as “dose dependent reduction in thrombin generation” in test [3] (plasma triggered by ellagic acid) and “dose dependently inhibited thrombin generation” in test [4] (plasma triggered by Tissue Factor).

The values are drawn from patent US12068729B2, “Anti-factor XII/XIIa antibodies and uses thereof” (Regeneron Pharmaceuticals, Inc., priority 2018, dated 2024).
